Source: the NIST ThermoML archive (doi:10.1016/j.tca.2015.02.014)
± gives the expanded uncertainty stated by the source.

Assay: mn = molality of the nth substance listed, in mol/kg
Settings: 100 kPa, Liquid; for viscosity: Capillary tube (Ostwald / Ubbelohde) method; for speed of sound: Frequency=3 MHz, Sing-around technique in a fixed-path interferometer; for mass density: Vibrating tube method

C[C@H](CCC(=O)[O-])[C@H]1CC[C@H]2[C@@H]3CC[C@@H]4C[C@H](O)CC[C@]4(C)[C@H]3C[C@H](O)[C@]12C.[Na+] [sodium deoxycholate] + O
viscosity (308.15 K, m1 = 0.001): 0.7203 ± 0.021 mPa·s | viscosity (308.15 K, m1 = 0.002): 0.7215 ± 0.021 mPa·s | viscosity (308.15 K, m1 = 0.003): 0.7225 ± 0.021 mPa·s | viscosity (308.15 K, m1 = 0.004): 0.7254 ± 0.021 mPa·s | viscosity (308.15 K, m1 = 0.005): 0.7307 ± 0.021 mPa·s | viscosity (308.15 K, m1 = 0.006): 0.7433 ± 0.021 mPa·s | viscosity (308.15 K, m1 = 0.007): 0.752 ± 0.021 mPa·s | viscosity (308.15 K, m1 = 0.009): 0.7601 ± 0.021 mPa·s | viscosity (308.15 K, m1 = 0.011): 0.7644 ± 0.021 mPa·s | viscosity (308.15 K, m1 = 0.013): 0.7685 ± 0.021 mPa·s | viscosity (308.15 K, m1 = 0.015): 0.7762 ± 0.021 mPa·s | viscosity (308.15 K, m1 = 0.017): 0.7831 ± 0.021 mPa·s | speed of sound (308.15 K, m1 = 0.001): 1520.1 ± 1.3 m/s | speed of sound (308.15 K, m1 = 0.002): 1520.5 ± 1.3 m/s | speed of sound (308.15 K, m1 = 0.003): 1520.7 ± 1.3 m/s | speed of sound (308.15 K, m1 = 0.004): 1520.8 ± 1.3 m/s | speed of sound (308.15 K, m1 = 0.005): 1521 ± 1.3 m/s | speed of sound (308.15 K, m1 = 0.006): 1521.3 ± 1.3 m/s | speed of sound (308.15 K, m1 = 0.007): 1521.5 ± 1.3 m/s | speed of sound (308.15 K, m1 = 0.009): 1521.9 ± 1.3 m/s | speed of sound (308.15 K, m1 = 0.011): 1522.2 ± 1.3 m/s | speed of sound (308.15 K, m1 = 0.013): 1522.6 ± 1.3 m/s | speed of sound (308.15 K, m1 = 0.015): 1522.8 ± 1.3 m/s | speed of sound (308.15 K, m1 = 0.017): 1523.2 ± 1.3 m/s | mass density (308.15 K, m1 = 0.001): 994.255 ± 0.14 kg/m3 | mass density (308.15 K, m1 = 0.002): 994.355 ± 0.13 kg/m3 | mass density (308.15 K, m1 = 0.003): 994.435 ± 0.13 kg/m3 | mass density (308.15 K, m1 = 0.004): 994.509 ± 0.13 kg/m3 | mass density (308.15 K, m1 = 0.005): 994.587 ± 0.13 kg/m3 | mass density (308.15 K, m1 = 0.006): 994.659 ± 0.13 kg/m3 | mass density (308.15 K, m1 = 0.007): 994.739 ± 0.13 kg/m3 | mass density (308.15 K, m1 = 0.009): 994.914 ± 0.13 kg/m3 | mass density (308.15 K, m1 = 0.011): 995.094 ± 0.13 kg/m3 | mass density (308.15 K, m1 = 0.013): 995.282 ± 0.13 kg/m3 | mass density (308.15 K, m1 = 0.015): 995.452 ± 0.13 kg/m3 | mass density (308.15 K, m1 = 0.017): 995.616 ± 0.13 kg/m3 | viscosity (313.15 K, m1 = 0.001): 0.6543 ± 0.021 mPa·s | viscosity (313.15 K, m1 = 0.002): 0.6554 ± 0.021 mPa·s | viscosity (313.15 K, m1 = 0.003): 0.6565 ± 0.021 mPa·s | viscosity (313.15 K, m1 = 0.004): 0.6593 ± 0.021 mPa·s | viscosity (313.15 K, m1 = 0.005): 0.6645 ± 0.021 mPa·s | viscosity (313.15 K, m1 = 0.006): 0.677 ± 0.021 mPa·s | viscosity (313.15 K, m1 = 0.007): 0.6857 ± 0.021 mPa·s | viscosity (313.15 K, m1 = 0.009): 0.6936 ± 0.021 mPa·s | viscosity (313.15 K, m1 = 0.011): 0.6979 ± 0.021 mPa·s | viscosity (313.15 K, m1 = 0.013): 0.7019 ± 0.021 mPa·s | viscosity (313.15 K, m1 = 0.015): 0.7096 ± 0.021 mPa·s | viscosity (313.15 K, m1 = 0.017): 0.7164 ± 0.021 mPa·s | speed of sound (313.15 K, m1 = 0.001): 1529.3 ± 1.3 m/s | speed of sound (313.15 K, m1 = 0.002): 1529.5 ± 1.3 m/s | speed of sound (313.15 K, m1 = 0.003): 1529.7 ± 1.3 m/s | speed of sound (313.15 K, m1 = 0.004): 1529.8 ± 1.3 m/s | speed of sound (313.15 K, m1 = 0.005): 1530 ± 1.3 m/s | speed of sound (313.15 K, m1 = 0.006): 1530.3 ± 1.3 m/s | speed of sound (313.15 K, m1 = 0.007): 1530.5 ± 1.3 m/s | speed of sound (313.15 K, m1 = 0.009): 1530.9 ± 1.3 m/s | speed of sound (313.15 K, m1 = 0.011): 1531.2 ± 1.3 m/s | speed of sound (313.15 K, m1 = 0.013): 1531.5 ± 1.3 m/s | speed of sound (313.15 K, m1 = 0.015): 1531.8 ± 1.3 m/s | speed of sound (313.15 K, m1 = 0.017): 1532 ± 1.3 m/s | mass density (313.15 K, m1 = 0.001): 992.421 ± 0.14 kg/m3 | mass density (313.15 K, m1 = 0.002): 992.515 ± 0.14 kg/m3 | mass density (313.15 K, m1 = 0.003): 992.6 ± 0.14 kg/m3 | mass density (313.15 K, m1 = 0.004): 992.681 ± 0.14 kg/m3 | mass density (313.15 K, m1 = 0.005): 992.757 ± 0.14 kg/m3 | mass density (313.15 K, m1 = 0.006): 992.817 ± 0.14 kg/m3 | mass density (313.15 K, m1 = 0.007): 992.91 ± 0.14 kg/m3 | mass density (313.15 K, m1 = 0.009): 993.064 ± 0.14 kg/m3 | mass density (313.15 K, m1 = 0.011): 993.239 ± 0.14 kg/m3 | mass density (313.15 K, m1 = 0.013): 993.428 ± 0.14 kg/m3 | mass density (313.15 K, m1 = 0.015): 993.595 ± 0.14 kg/m3 | mass density (313.15 K, m1 = 0.017): 993.737 ± 0.13 kg/m3 | viscosity (318.15 K, m1 = 0.001): 0.5973 ± 0.021 mPa·s | viscosity (318.15 K, m1 = 0.002): 0.5984 ± 0.021 mPa·s | viscosity (318.15 K, m1 = 0.003): 0.5994 ± 0.021 mPa·s | viscosity (318.15 K, m1 = 0.004): 0.6022 ± 0.021 mPa·s | viscosity (318.15 K, m1 = 0.005): 0.6074 ± 0.021 mPa·s | viscosity (318.15 K, m1 = 0.006): 0.6197 ± 0.021 mPa·s | viscosity (318.15 K, m1 = 0.007): 0.6283 ± 0.021 mPa·s | viscosity (318.15 K, m1 = 0.009): 0.6361 ± 0.022 mPa·s | viscosity (318.15 K, m1 = 0.011): 0.6403 ± 0.021 mPa·s | viscosity (318.15 K, m1 = 0.013): 0.6443 ± 0.021 mPa·s | viscosity (318.15 K, m1 = 0.015): 0.6518 ± 0.021 mPa·s | viscosity (318.15 K, m1 = 0.017): 0.6586 ± 0.021 mPa·s | speed of sound (318.15 K, m1 = 0.001): 1536.9 ± 1.3 m/s | speed of sound (318.15 K, m1 = 0.002): 1537.1 ± 1.3 m/s | speed of sound (318.15 K, m1 = 0.003): 1537.3 ± 1.3 m/s | speed of sound (318.15 K, m1 = 0.004): 1537.3 ± 1.3 m/s | speed of sound (318.15 K, m1 = 0.005): 1537.5 ± 1.3 m/s | speed of sound (318.15 K, m1 = 0.006): 1537.7 ± 1.3 m/s | speed of sound (318.15 K, m1 = 0.007): 1537.9 ± 1.3 m/s | speed of sound (318.15 K, m1 = 0.009): 1538.3 ± 1.3 m/s | speed of sound (318.15 K, m1 = 0.011): 1538.6 ± 1.3 m/s | speed of sound (318.15 K, m1 = 0.013): 1538.9 ± 1.3 m/s | speed of sound (318.15 K, m1 = 0.015): 1539.2 ± 1.3 m/s | speed of sound (318.15 K, m1 = 0.017): 1539.5 ± 1.3 m/s | mass density (318.15 K, m1 = 0.001): 990.405 ± 0.14 kg/m3 | mass density (318.15 K, m1 = 0.002): 990.499 ± 0.14 kg/m3 | mass density (318.15 K, m1 = 0.003): 990.576 ± 0.14 kg/m3 | mass density (318.15 K, m1 = 0.004): 990.651 ± 0.14 kg/m3 | mass density (318.15 K, m1 = 0.005): 990.732 ± 0.14 kg/m3 | mass density (318.15 K, m1 = 0.006): 990.802 ± 0.14 kg/m3 | mass density (318.15 K, m1 = 0.007): 990.892 ± 0.14 kg/m3 | mass density (318.15 K, m1 = 0.009): 991.03 ± 0.14 kg/m3 | mass density (318.15 K, m1 = 0.011): 991.199 ± 0.14 kg/m3 | mass density (318.15 K, m1 = 0.013): 991.379 ± 0.14 kg/m3 | mass density (318.15 K, m1 = 0.015): 991.535 ± 0.14 kg/m3 | mass density (318.15 K, m1 = 0.017): 991.705 ± 0.14 kg/m3
